According to patent US11117926B2, “Cholane derivatives for use in the treatment and/or prevention of FXR and TGR5/GPBAR1 mediated diseases” (BAR PHARMACEUTICALS S.R.L., priority 2014, dated 2021):

Tests used:
FXR = molecular target: T1, FXR (Homo sapiens, UniProt Q96RI1); test: FXR mediated transactivation (luciferase reporter) in transfected HepG2 cells; format: cell-based; details: each compound at 10 microM, transactivation activity of CDCA on FXR = 100%
T1 construct: expressed in transfected cells; host or cells: HepG2
T1 sequence (Q96RI1 1-486): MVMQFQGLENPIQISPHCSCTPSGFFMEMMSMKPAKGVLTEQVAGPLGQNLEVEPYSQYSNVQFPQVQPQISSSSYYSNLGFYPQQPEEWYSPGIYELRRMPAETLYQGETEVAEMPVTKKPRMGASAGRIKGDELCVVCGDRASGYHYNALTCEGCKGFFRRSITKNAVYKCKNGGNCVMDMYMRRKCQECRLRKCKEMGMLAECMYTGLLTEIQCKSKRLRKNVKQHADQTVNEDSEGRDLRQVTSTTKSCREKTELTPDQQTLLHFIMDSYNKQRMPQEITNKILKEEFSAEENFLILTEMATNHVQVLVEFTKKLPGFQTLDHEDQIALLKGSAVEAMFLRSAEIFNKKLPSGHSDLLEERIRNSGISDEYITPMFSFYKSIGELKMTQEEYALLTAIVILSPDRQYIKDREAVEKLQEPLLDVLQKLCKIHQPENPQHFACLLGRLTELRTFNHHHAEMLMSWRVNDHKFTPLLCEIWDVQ
T1 sequence (P19793 1-462 partner): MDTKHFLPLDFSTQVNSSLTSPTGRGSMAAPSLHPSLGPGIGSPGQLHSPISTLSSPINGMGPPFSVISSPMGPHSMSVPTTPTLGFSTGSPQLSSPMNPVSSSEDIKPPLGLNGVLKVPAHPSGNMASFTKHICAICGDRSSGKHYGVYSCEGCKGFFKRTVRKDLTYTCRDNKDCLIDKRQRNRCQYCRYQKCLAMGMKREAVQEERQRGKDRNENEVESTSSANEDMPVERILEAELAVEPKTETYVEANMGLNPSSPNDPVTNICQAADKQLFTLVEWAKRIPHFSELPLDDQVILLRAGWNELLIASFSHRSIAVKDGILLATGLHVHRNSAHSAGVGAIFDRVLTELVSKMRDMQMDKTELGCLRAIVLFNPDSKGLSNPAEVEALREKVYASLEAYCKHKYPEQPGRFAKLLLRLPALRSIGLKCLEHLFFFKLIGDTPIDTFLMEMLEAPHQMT
Description: (§1) Each compound was tested at the concentration of 10 microM and transactivation activity of CDCA on FXR and TLCA on CRE (i.e. TGR5/GPBAR1) was considered equal to 100%.
(§2) Biological Activities. Activity of selected compounds was tested in vitro using a whole cell model transfected with a reporter genes to establish selectivity of compounds shown in table 1 toward FXR and TGR5/GPBAR1 in comparison with chenodeoxycholic acid (CDCA) and TLCA. CDCA is a primary bile acid that functions as an endogenous ligand for FXR, while TLCA is a physiological ligand for TGR5/GPBAR1. In this assay, HepG2 cells (a liver-derived cell line) were cultured at 37° C. in minimum essential medium with Earl's salts containing 10% fetal bovine serum (FBS), 1% L-glutamine, and 1% penicillin/streptomycin. […] The transfection experiments were performed using Fugene HD according to manufactured specifications. Cells were plated in a 24-well plate at 5×10^4 cells/well. For FXR mediated transactivation, HepG2 cells were transfected with 100 ng of pSG5-FXR, 100 ng of pSG5-RXR, 100 ng of pGL4.70 a vector encoding the human Renilla gene and 250 ng of the reporter vector p(hsp27)-TK-LUC containing the FXR response element IR1 cloned from the promoter of heat shock protein 27 (hsp27).
(§3) At 24 h post-transfection, cells were stimulated for 18 h with 10 μM TLCA as a control agent or putative GPBAR1 agonists as the same concentration. After treatments, cells were lysed in 100 μL of lysis buffer (25 mM Tris-phosphate, pH 7.8; 2 mM DTT; 10% glycerol; 1% Triton X-100), and 20 μL of cellular lysate was assayed for luciferase activity using the luciferase assay system. Luminescence was measured using Glomax 20/20 luminometer. Luciferase activities were normalized against Renilla activities. Antagonism against FXR of GPBAR1/TGR5 was measured as percent of activity in transactivation assay suing activity of TLCA as example of agonism.

human GPBAR1 = molecular target: T2, human GPBAR1 (Homo sapiens, UniProt Q8TDU6); test: GPBAR1 mediated transactivation (CRE luciferase reporter) in transfected HEK-293T cells; format: cell-based; details: each compound at 10 microM, transactivation activity of TLCA on CRE = 100%
T2 construct: expressed in transfected cells; host or cells: HEK-293T
T2 sequence (Q8TDU6 1-330): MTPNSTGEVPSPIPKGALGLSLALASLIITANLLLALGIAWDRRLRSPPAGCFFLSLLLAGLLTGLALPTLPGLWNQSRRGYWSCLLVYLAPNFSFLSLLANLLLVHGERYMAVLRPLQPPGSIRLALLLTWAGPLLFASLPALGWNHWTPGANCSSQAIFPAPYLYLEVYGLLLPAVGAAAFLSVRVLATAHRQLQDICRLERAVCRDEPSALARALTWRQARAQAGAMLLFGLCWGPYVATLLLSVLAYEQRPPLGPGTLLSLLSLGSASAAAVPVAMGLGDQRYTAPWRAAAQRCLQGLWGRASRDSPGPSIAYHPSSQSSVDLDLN
Description: as §1, §2, §3

[1] = not given; remark: listed apart in the source
[2] = ANIT or 17α-ethynylestradiol cholestasis models

| SMILES | FXR (% of activity in comparison to 10 μM CDCA) (FXR) | GPBAR1 (% of activity in comparison to 10 μM TLCA) (human GPBAR1) | other results |
| --- | --- | --- | --- |
| CC[C@H]1[C@@H](O)C2C3CC[C@H]([C@H](C)CCCO)[C@@]3(C)CCC2[C@@]2(C)CC[C@@H](O)C[C@@H]12 (stereo partly drawn) [BAR504] | 488.5 ± 17.5% | 103.0 ± 12.1% |  |
| CC=C1[C@H](O)[C@@H]2[C@H](CC[C@]3(C)[C@@H]([C@H](C)CCCO)CC[C@@H]23)[C@@]2(C)CC[C@@H](O)C[C@@H]12 [BAR503, 6-ethylidene-3α,7β-dihydroxy-5β-cholan-24-ol] | 68.8 ± 26.6% | 59.8 ± 0.1% |  |
| CC[C@H]1[C@H](O)[C@@H]2[C@H](CC[C@]3(C)[C@@H]([C@H](C)CCCO)CC[C@@H]23)[C@@]2(C)CC[C@H](O)C[C@@H]12 [BAR707, 6α-ethyl-3β,7β-dihydroxy-5β-cholan-24-ol] | 92.5 ± 7.5% | 65 ± 6.0% |  |
| C[C@H](CCOS(=O)(=O)[O-])[C@H]1CC[C@H]2[C@@H]3[C@@H](O)C[C@@H]4C[C@H](O)CC[C@]4(C)[C@H]3CC[C@]12C.[Na+] [BAR106, 3α,7β-dihydroxy-24-nor-5β-cholan-23-yl-23-sodium sulfate] | 0% | 19.0 ± 1.3% |  |
| CC[C@H]1[C@@H](O)C2C3CC[C@H]([C@H](C)CCCCCO)[C@@]3(C)CCC2[C@@]2(C)CC[C@@H](O)C[C@@H]12 (stereo partly drawn) [BAR803, 6α-ethyl-3α, 7α-dihydroxy-25, 26-bishomo-5β-cholan-26-ol] | 122.5 ± 5.5% | 80.5 ± 5.0% |  |
| CC[C@H]1[C@@H](O)C2C3CC[C@H]([C@H](C)CC(=O)O)[C@@]3(C)CCC2[C@@]2(C)CCCC[C@@H]12 (stereo partly drawn) [BARn704, 6α-ethyl-7α-hydroxy-24-nor-5β-cholan-23-oic acid] | 202.5 ± 1.5% | 64 ± 2.0% |  |
| C[C@H](CCO)[C@H]1CCC2C3C(CC[C@@]21C)[C@@]1(C)CC[C@@H](O)C[C@H]1C[C@@H]3O (stereo partly drawn) [BAR107, 3α,7β-dihydroxy-24-nor-5β-cholan-23-ol] | 1.8 ± 0.3% | 9.9 ± 1.7% |  |
| CC[C@H]1[C@H](O)[C@@H]2[C@H](CC[C@]3(C)[C@@H]([C@H](C)CCCO)CC[C@@H]23)[C@@]2(C)CC[C@@H](O)C[C@@H]12 [BAR501-6a, 6α-ethyl-3α,7β-dihydroxy-5β-cholan-24-ol] | 15.4 ± 1.2% | 46.6 ± 6.7% |  |
| C[C@H](CCCCCO)[C@H]1CCC2C3C(CC[C@@]21C)[C@@]1(C)CC[C@@H](O)C[C@H]1C[C@@H]3O (stereo partly drawn) [BAR304, 25, 26-bishomo-5β-cholan-3α, 7β, 26-triol] | 0% | 55.1 ± 12.5% |  |
| CC[C@H]1[C@@H](O)C2C3CC[C@H]([C@H](C)CCO)[C@@]3(C)CCC2[C@@]2(C)CC[C@@H](O)C[C@@H]12 (stereo partly drawn) [BAR502, 6α-ethyl-3α, 7α-dihydroxy-24-nor-5β-cholan-23-ol] | 263.0 ± 32.0% | 74.5 ± 6.4% | bile acid pool (17α-ethynylestradiol model): reshapes bile acid pool; cholestasis (17α-ethynylestradiol model): attenuates cholestasis; itching (mouse, in vivo): without inducing itching; liver expression of canonical FXR target genes including OSTα, BSEP, SHP and MDR1 [1, 2]: robustly modulates; serum alkaline phosphatase levels [1, 2]: attenuates; survival [1, 2]: increases survival; itching (pruritus) ([1]; mouse, in vivo): does not induce itching |
| CC[C@H]1[C@@H](O)[C@@H]2[C@H](CC[C@]3(C)[C@@H]([C@H](C)CCC(=O)O)CC[C@@H]23)[C@@]2(C)CCCC[C@@H]12 [BAR704, 6α-ethyl-7α-hydroxy-5β-cholan-24-oic acid] | 220.5 ± 37.5% | 27.9 ± 6.3% |  |
| CC[C@@H]1[C@@H](O)[C@@H]2[C@H](CC[C@]3(C)[C@@H]([C@H](C)CCCO)CC[C@@H]23)[C@@]2(C)CC[C@@H](O)C[C@@H]12 [BAR504-6b, 6β-ethyl-3α,7α-dihydroxy-5β-cholan-24-ol] | 32.4 ± 14.1% | 75.3 ± 3.4% |  |
| CC[C@H]1[C@@H](O)C2C3CC[C@H]([C@H](C)CC#N)[C@@]3(C)CCC2[C@@]2(C)CC[C@@H](O)C[C@@H]12 (stereo partly drawn) [BAR506, 6α-ethyl-3α,7α-dihydroxy-24-nor-5β-cholan-23-nitrile] | 411.5 ± 36.5% | 80.9 ± 9.5% |  |
| CC[C@H]1[C@@H](O)C2C3CC[C@H]([C@H](C)CC(=O)O)[C@@]3(C)CCC2[C@@]2(C)CC[C@H](O)C[C@@H]12 (stereo partly drawn) [BARn710, 6α-ethyl-3β,7α-dihydroxy-24-nor-5β-cholan-23-oic acid] | 142 ± 1.0% | 75 ± 8.0% |  |
| CC[C@H]1[C@@H](O)[C@@H]2[C@H](CC[C@]3(C)[C@@H]([C@H](C)CCCO)CC[C@@H]23)[C@@]2(C)CCCC[C@@H]12 [BAR701, 6α-ethyl-7α-hydroxy-5β-cholan-24-ol] | 101.3 ± 10.1% | 50.2 ± 2.3% |  |
| C[C@H](CCCCC(=O)O)[C@H]1CCC2C3C(CC[C@@]21C)[C@@]1(C)CC[C@@H](O)C[C@H]1C[C@@H]3O (stereo partly drawn) [BAR305, 3α, 7β-dihydroxy-25, 26-bishomo-5β-cholan-26-oic acid] | 0% | 23.9 ± 4.0% |  |
| CC[C@H]1[C@H](O)[C@@H]2[C@H](CC[C@]3(C)[C@@H]([C@H](C)CCCO)CC[C@@H]23)[C@@]2(C)CCCC[C@@H]12 [BAR703, 6α-ethyl-7β-hydroxy-5β-cholan-24-ol] | 8.6 ± 0.8% | 47.7 ± 1.0% |  |
| CC[C@H]1[C@@H](O)C2C3CC[C@H]([C@H](C)CCCCC(=O)O)[C@@]3(C)CCC2[C@@]2(C)CC[C@@H](O)C[C@@H]12 (stereo partly drawn) [BAR802, 6α-ethyl-3α, 7α-dihydroxy-25, 26-bishomo-5β-cholan-26-oic acid] | 11.5 ± 8.5% | 56 ± 5.0% |  |
| CC[C@H]1[C@@H](O)C2C3CC[C@H]([C@H](C)CCO)[C@@]3(C)CCC2[C@@]2(C)CCCC[C@@H]12 (stereo partly drawn) [BARn701, 6α-ethyl-7α-hydroxy-24-nor-5β-cholan-23-ol] | 90 ± 22% | 55 ± 1.0% |  |
